Reference: article PMC5196434, “Proximity does not contribute to activity enhancement in the glucose oxidase–horseradish peroxidase cascade” (Nature Communications, 2016)

Target: T1, glucose oxidase (GOx) (Aspergillus niger, UniProt P13006)
T1 construct: commercial type VII preparation (Sigma Aldrich), free enzyme
Assay: HRP-coupled ABTS colorimetric assay, absorbance at […] nm
Format: biochemical
Conditions: co-substrate oxygen; 20 nM HRP, 2 mM ABTS; PBS pH 7.4; 23 °C; read-out: Michaelis-Menten kinetics (Km)

T1 sequence (P13006 23-605): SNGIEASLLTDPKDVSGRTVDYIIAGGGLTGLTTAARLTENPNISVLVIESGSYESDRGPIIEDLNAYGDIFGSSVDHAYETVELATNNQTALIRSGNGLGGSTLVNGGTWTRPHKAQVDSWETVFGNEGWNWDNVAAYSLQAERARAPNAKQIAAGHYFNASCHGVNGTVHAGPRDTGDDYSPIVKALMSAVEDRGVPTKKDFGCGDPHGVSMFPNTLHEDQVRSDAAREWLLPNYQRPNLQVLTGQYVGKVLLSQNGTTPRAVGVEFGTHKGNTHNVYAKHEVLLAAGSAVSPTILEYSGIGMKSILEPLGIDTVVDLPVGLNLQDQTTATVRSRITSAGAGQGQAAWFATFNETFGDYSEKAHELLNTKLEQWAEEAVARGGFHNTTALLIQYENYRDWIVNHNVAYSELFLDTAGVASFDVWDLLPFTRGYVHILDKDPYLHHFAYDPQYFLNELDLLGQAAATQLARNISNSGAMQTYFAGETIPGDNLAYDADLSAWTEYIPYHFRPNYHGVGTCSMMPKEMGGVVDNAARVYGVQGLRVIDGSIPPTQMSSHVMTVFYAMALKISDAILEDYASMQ

Substance: D-glucose
- Km: 15 mM
